The source made the active and inactive calls. The rule behind the calls is not given here.
Key:
D(2) dopamine receptor [1] = target: T1, D(2) dopamine receptor (Homo sapiens, UniProt P14416); test: Displacement of [3H]spiperone from human cloned D2 dopamine receptor incubated for 90 mins by radioligand binding assay
D(1A) dopamine receptor [2] = target: T2, D(1A) dopamine receptor (Homo sapiens, UniProt P21728); test: Displacement of [3H]SCH-23390 from human cloned D1 dopamine receptor incubated for 90 mins by radioligand binding assay
T2 sequence (P21728 whole entry): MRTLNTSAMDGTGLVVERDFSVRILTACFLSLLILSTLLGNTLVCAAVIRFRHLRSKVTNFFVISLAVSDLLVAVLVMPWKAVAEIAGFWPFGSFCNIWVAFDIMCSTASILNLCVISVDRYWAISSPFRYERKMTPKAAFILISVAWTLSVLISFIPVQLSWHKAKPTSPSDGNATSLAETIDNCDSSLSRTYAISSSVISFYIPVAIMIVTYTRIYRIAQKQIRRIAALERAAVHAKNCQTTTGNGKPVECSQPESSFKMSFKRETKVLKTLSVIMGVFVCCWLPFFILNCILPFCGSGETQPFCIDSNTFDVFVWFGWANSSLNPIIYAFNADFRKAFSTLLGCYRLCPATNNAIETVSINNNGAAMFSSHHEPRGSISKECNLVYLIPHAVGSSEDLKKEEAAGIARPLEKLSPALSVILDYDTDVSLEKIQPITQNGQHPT

D(3) dopamine receptor [3] = target: T3, D(3) dopamine receptor (Homo sapiens, UniProt P35462); test: Binding affinity to human cloned D3 dopamine receptor incubated for 90 mins by radioligand binding assay
T3 sequence (P35462 whole entry): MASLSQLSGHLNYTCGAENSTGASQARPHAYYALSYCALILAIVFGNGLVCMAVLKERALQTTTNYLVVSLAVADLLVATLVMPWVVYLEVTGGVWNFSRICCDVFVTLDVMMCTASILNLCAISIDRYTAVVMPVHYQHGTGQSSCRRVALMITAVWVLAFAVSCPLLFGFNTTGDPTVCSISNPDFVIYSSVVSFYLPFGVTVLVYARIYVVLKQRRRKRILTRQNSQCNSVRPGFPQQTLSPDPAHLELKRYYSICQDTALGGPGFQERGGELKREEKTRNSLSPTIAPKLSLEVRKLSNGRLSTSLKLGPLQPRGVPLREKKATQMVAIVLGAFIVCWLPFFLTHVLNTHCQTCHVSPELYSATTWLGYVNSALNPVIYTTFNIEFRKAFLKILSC

D(1B) dopamine receptor [4] = target: T4, D(1B) dopamine receptor (Homo sapiens, UniProt P21918); test: Binding affinity to human cloned D5 dopamine receptor incubated for 90 mins by radioligand binding assay
T4 sequence (P21918 whole entry): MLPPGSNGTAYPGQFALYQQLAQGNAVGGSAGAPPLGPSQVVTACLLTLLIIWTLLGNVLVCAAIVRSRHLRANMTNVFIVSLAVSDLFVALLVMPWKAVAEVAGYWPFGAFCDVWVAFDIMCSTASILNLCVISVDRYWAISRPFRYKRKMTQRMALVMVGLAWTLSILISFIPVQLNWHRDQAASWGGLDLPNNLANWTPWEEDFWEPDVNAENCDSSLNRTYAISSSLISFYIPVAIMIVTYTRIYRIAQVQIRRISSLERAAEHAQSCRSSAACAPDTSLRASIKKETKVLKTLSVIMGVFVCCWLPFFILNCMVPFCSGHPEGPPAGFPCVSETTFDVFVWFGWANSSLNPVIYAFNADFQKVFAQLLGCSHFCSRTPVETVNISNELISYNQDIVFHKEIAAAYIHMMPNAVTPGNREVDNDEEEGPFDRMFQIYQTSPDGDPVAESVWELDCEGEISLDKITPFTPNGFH

D(4) dopamine receptor [5] = target: T5, D(4) dopamine receptor (Homo sapiens, UniProt P21917); test: Binding affinity to human cloned D4 dopamine receptor incubated for 90 mins by radioligand binding assay
T5 sequence (P21917 whole entry): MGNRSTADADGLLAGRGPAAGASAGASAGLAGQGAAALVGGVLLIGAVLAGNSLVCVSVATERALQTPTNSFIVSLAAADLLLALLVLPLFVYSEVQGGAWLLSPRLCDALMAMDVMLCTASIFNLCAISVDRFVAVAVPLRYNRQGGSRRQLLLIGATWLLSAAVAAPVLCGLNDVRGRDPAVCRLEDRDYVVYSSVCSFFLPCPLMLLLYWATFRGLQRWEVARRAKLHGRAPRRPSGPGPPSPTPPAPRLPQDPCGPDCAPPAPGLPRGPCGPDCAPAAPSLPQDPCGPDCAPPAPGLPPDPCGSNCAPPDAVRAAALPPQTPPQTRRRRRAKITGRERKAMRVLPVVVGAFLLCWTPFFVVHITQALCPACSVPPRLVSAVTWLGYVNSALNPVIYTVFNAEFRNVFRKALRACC

D(1B) dopamine receptor [6] = target: T4, D(1B) dopamine receptor; test: Antagonist activity at human D5 dopamine receptor expressed in HEK293 cells assessed as inhibition of SKF38393-induced intracellular calcium level preincubated at 10 uM by oregon green staining based microplate fluorescence reader analysis; format: functional, cell-based
Homo sapiens = species on record: Homo sapiens; test: Selectivity index, ratio of Ki for human cloned D1 dopamine receptor to Ki for human cloned D5 dopamine receptor
D(2) dopamine receptor [7] = target: T1, D(2) dopamine receptor; test: Antagonist activity at human D2L dopamine receptor expressed in HEK293 cells assessed as inhibition of quinpirole-induced intracellular calcium level preincubated at 10 uM by oregon green staining based microplate fluorescence reader analysis; format: functional, cell-based
D(1A) dopamine receptor [8] = target: T2, D(1A) dopamine receptor; test: Antagonist activity at human D1 dopamine receptor expressed in HEK293 cells assessed as inhibition of SKF38393-induced intracellular calcium level preincubated at 10 uM by oregon green staining based microplate fluorescence reader analysis; format: functional, cell-based
D(1B) dopamine receptor [9] = target: T4, D(1B) dopamine receptor; test: Displacement of [3H]SCH-23390 from human cloned D5 dopamine receptor expressed in HEKT cells incubated for 90 mins by scintillation counting based radioligand binding assay; format: cell-based
D(3) dopamine receptor [10] = target: T3, D(3) dopamine receptor; test: Displacement of [3H]N-methylspiperone from human cloned D3 dopamine receptor expressed in HEKT cells incubated for 90 mins by scintillation counting based radioligand binding assay; format: cell-based
D(4) dopamine receptor [11] = target: T5, D(4) dopamine receptor
D(1A) dopamine receptor [12] = target: T2, D(1A) dopamine receptor; test: Displacement of [3H]SCH-23390 from human cloned D1 dopamine receptor expressed in HEKT cells incubated for 90 mins by scintillation counting based radioligand binding assay; format: cell-based

T1 sequence (P14416 whole entry): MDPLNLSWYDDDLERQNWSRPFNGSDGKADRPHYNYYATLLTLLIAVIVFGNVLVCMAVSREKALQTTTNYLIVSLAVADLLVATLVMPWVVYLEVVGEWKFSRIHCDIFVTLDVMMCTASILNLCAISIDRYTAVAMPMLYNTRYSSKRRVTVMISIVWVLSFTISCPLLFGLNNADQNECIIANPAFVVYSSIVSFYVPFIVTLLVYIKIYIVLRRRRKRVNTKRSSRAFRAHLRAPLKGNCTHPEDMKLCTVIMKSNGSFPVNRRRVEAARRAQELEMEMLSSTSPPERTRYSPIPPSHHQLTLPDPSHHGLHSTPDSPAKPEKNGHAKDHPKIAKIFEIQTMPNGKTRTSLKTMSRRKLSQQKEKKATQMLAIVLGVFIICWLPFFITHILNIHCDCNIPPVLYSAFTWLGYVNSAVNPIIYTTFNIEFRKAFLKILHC

Structure (SMILES) | Ki (D(2) dopamine receptor [1]) | Ki (D(1A) dopamine receptor [2]) | Ki (D(3) dopamine receptor [3]) | Ki (D(1B) dopamine receptor [4]) | Ki (D(4) dopamine receptor [5]) | inhibition (D(1B) dopamine receptor [6]) | Ratio Ki (Homo sapiens) | inhibition (D(2) dopamine receptor [7]) | inhibition (D(1A) dopamine receptor [8]) | Ki (D(1B) dopamine receptor [9]) | Ki (D(3) dopamine receptor [10]) | Ki (D(4) dopamine receptor [11]) | Ki (D(1A) dopamine receptor [12])
CCOC(=O)N1CCc2ccccc2Cc2ccsc2CC1 | > 1000 nM | > 1000 nM | > 1000 nM | > 1000 nM | > 1000 nM | – | – | – | – | – | – | – | –
CCOC(=O)N1CCc2ccccc2Cc2sc3ccccc3c2CC1 | > 1000 nM | > 1000 nM | > 1000 nM | > 1000 nM | > 1000 nM | – | – | – | – | – | – | – | –
CN1CCc2ccccc2Cc2sc3ccccc3c2CC1 | 1.5 nM | 40 nM | 18 nM | 1.9 nM | 72 nM | Active | 20 | Active | Active | – | – | – | –
Cc1cc2c(s1)Nc1ccccc1N=C2N1CCN(C)CC1 [OLANZAPINE] | – | – | – | – | – | – | – | – | – | 90 nM | – | – | –
CN1CC2c3ccccc3Oc3ccc(Cl)cc3C2C1 (configuration not stated) [ASENAPINE] | – | – | – | – | – | – | – | – | – | – | 9.4 nM | 9 nM | 8.9 nM
CN1CCc2ccccc2Cc2sccc2CC1 | 45 nM | 60 nM | 24 nM | 3 nM | 188 nM | Active | 20 | Active | Active | – | – | – | –
CCOC(=O)N1CCc2ccccc2Cc2sccc2CC1 | > 1000 nM | > 1000 nM | > 1000 nM | > 1000 nM | > 1000 nM | – | – | – | – | – | – | – | –

Reference: ChEMBL document CHEMBL3751719, “D1-like receptors distinguishing thieno-azecine regioisomers” (Medchemcomm, 2015)
